Active and inactive are the calls of the source. The rule behind the calls is not given here.
Assays:
[1] = target: T1, 5-hydroxytryptamine receptor 1A (Homo sapiens) (UniProt P08908); test: Agonist activity at human 5-HT1A receptor expressed in HEK293 cells assessed as stimulation of cAMP levels at 0.1 uM relative to 8-OH-DPAT; assay type: functional, cell-based
T1 sequence (whole entry): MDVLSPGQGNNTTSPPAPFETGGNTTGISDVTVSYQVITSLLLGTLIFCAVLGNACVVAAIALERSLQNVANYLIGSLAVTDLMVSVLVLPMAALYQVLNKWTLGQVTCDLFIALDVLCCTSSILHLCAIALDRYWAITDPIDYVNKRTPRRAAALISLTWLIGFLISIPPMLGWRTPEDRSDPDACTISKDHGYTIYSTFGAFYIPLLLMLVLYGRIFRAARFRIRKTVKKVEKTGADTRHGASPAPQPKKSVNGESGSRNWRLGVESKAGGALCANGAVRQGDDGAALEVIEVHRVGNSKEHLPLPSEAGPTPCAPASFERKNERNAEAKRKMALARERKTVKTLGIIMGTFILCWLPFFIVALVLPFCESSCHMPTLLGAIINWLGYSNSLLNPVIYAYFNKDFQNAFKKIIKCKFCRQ

[2] = target: T2, D(2) dopamine receptor (Homo sapiens, UniProt P14416); test: Antagonist activity against human dopamine D2L receptor expressed in HEK293 cells assessed as inhibition of […]-induced cAMP levels at 0.1 uM; assay type: functional, cell-based
T2 sequence (P14416 whole entry): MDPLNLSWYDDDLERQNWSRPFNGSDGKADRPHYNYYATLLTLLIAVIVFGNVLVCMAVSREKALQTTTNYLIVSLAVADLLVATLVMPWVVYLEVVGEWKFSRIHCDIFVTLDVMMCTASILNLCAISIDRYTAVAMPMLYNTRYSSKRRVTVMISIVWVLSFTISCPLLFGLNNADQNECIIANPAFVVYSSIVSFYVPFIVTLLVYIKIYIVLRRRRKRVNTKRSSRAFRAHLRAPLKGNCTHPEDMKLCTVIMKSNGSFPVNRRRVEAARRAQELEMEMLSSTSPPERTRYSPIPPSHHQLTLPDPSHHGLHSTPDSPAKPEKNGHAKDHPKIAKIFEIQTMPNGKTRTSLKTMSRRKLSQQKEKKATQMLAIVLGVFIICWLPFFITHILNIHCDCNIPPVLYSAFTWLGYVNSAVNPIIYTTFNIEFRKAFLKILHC

[3] = target: T2, D(2) dopamine receptor; test: Agonist activity at human D2L receptor expressed in HEK293 cells assessed as stimulation of cAMP levels at 0.1 uM relative to dopamine; assay type: functional, cell-based
[4] = target: T3, 5-hydroxytryptamine receptor 7 (Homo sapiens, UniProt P34969); test: Displacement of [3H]LSD from human recombinant 5-HT7 receptor expressed in CHOK1 cells incubated for 60 mins by microbeta plate reader based method; assay type: cell-based, CHO-K1
T3 sequence (P34969 whole entry): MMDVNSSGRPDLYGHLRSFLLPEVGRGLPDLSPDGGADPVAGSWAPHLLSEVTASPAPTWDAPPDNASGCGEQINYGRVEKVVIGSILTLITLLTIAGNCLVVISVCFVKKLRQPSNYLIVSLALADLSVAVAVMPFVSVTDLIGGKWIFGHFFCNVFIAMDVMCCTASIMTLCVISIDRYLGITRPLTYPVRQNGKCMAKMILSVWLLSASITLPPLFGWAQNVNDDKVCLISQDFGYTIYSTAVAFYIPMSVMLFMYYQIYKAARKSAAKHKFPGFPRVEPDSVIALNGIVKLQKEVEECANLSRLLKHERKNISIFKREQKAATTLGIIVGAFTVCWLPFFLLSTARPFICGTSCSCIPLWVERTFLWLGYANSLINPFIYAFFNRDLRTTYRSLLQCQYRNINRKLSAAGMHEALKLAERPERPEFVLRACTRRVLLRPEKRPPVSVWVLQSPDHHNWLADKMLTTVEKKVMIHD

[5] = target: T4, 5-hydroxytryptamine receptor 6 (Homo sapiens, UniProt P50406); test: Displacement of [3H]LSD from human recombinant 5-HT6 receptor expressed in HEK293 cells assessed as total radioligand binding at 1 uM incubated for 60 mins by microbeta plate reader based method; assay type: cell-based
T4 sequence (P50406 whole entry): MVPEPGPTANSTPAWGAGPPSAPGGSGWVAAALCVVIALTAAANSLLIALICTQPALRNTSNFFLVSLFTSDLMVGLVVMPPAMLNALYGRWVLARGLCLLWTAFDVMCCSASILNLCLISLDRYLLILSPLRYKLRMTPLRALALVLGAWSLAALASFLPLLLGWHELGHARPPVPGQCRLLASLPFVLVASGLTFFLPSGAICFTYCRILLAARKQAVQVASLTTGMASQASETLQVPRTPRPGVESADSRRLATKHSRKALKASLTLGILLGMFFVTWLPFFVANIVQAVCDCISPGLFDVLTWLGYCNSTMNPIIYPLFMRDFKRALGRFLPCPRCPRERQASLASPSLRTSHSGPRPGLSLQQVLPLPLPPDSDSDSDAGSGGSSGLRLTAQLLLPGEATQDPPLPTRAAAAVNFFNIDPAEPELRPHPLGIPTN

[6] = test system: Mus musculus; test: Antidepressant-like activity in Swiss mouse assessed as reduction in immobility time at 1.25 to 5 mg/kg, ip administered 60 mins before test; assay type: functional, organism-based
[7] = target: T2, D(2) dopamine receptor; test: Antagonist activity against human dopamine D2L receptor expressed in HEK293 cells assessed as inhibition of […]-induced cAMP levels at 1 uM; assay type: functional, cell-based
[8] = target: T2, D(2) dopamine receptor; test: Displacement of [3H]N-methylspiperone from human recombinant dopamine D2 receptor expressed in CHOK1 cells incubated for 60 mins by microbeta plate reader based method; assay type: cell-based, CHO-K1
[9] = test system: Mus musculus; test: Anxiolytic-like activity in Swiss mouse assessed as increase in number of punished crossings measured during 60 seconds period at 5 mg/kg, ip by four-plate test; assay type: functional; conditions: route intraperitoneal
[10] = target: T3, 5-hydroxytryptamine receptor 7; test: Antagonist activity against human 5-HT7 receptor expressed in HEK293 cells assessed as inhibition of 5-HT-induced cAMP levels at 1 uM; assay type: functional, cell-based
[11] = target: T5, 5-hydroxytryptamine receptor 1A (Rattus norvegicus, UniProt P19327); test: Displacement of [3H]8-OH-DPAT from rat hippocampus 5-HT1A receptor incubated for 20 mins by microbeta plate reader based method
T5 sequence (P19327 whole entry): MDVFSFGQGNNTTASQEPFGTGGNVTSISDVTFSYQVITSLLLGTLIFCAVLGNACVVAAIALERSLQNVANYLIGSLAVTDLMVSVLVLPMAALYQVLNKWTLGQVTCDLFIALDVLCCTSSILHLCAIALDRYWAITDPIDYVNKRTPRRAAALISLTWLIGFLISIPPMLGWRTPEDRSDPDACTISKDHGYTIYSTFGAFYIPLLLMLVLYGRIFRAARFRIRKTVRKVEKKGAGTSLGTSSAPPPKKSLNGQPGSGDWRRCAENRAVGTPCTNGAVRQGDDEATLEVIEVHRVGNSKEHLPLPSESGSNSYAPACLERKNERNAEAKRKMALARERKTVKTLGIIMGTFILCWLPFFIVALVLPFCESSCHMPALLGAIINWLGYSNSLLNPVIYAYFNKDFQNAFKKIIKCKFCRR

[12] = target: D(3) dopamine receptor (Homo sapiens) (UniProt P35462); test: Displacement of [3H]N-methylspiperone from dopamine D3 receptor (unknown origin) assessed as total radioligand binding at 1 uM incubated for 60 mins by microbeta plate reader based method
Chain of D(3) dopamine receptor (Homo sapiens) (P35462 whole entry): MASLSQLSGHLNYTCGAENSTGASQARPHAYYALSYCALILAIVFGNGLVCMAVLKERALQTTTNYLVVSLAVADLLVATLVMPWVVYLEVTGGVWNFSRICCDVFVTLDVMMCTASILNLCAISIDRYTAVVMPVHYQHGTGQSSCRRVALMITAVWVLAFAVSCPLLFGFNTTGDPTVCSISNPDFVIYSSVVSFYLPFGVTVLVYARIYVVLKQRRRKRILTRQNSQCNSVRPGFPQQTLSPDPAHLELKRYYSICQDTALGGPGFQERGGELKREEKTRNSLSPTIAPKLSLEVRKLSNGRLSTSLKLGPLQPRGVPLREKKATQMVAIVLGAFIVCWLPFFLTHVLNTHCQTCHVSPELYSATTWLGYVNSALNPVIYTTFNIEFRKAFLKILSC

[13] = target: T1, 5-hydroxytryptamine receptor 1A (Homo sapiens); test: Agonist activity at human 5-HT1A receptor expressed in HEK293 cells assessed as stimulation of cAMP levels at 1 uM relative to 8-OH-DPAT; assay type: functional, cell-based
[14] = Selectivity index, ratio of Ki for rat hippocampus 5-HT1A receptor to Ki for human recombinant 5-HT7 receptor
[15] = target: T1, 5-hydroxytryptamine receptor 1A (Homo sapiens); test: Antagonist activity against human 5-HT1A receptor expressed in HEK293 cells assessed as inhibition of […]-induced cAMP levels at 0.1 uM; assay type: functional, cell-based
[16] = test system: Mus musculus; test: Toxicity in Swiss mouse assessed as spontaneous locomotor activity at 2.5 to 10 mg/kg, ip; assay type: organism-based; parameters: dose 2.5-10 mg/kg, route intraperitoneal; conditions: in vivo
[17] = target: D(3) dopamine receptor (Homo sapiens) (UniProt P35462); test: Displacement of [3H]N-methylspiperone from dopamine D3 receptor (unknown origin) assessed as total radioligand binding at 1.66 x 10^-7 M incubated for 60 mins by microbeta plate reader based method
[18] = target: T3, 5-hydroxytryptamine receptor 7; test: Agonist activity at human 5-HT7 receptor expressed in HEK293 cells assessed as stimulation of cAMP levels at 1 uM relative to 5HT; assay type: functional, cell-based
[19] = test system: Mus musculus; test: Anxiolytic-like activity in Swiss mouse assessed as increase in number of punished crossings measured during 60 seconds period at 2.5 to 10 mg/kg, ip by four-plate test; assay type: functional, organism-based
[20] = target: T1, 5-hydroxytryptamine receptor 1A (Homo sapiens); test: Antagonist activity against human 5-HT1A receptor expressed in HEK293 cells assessed as inhibition of […]-induced cAMP levels at 1 uM; assay type: functional, cell-based
[21] = target: T6, 5-hydroxytryptamine receptor 1A (Rattus norvegicus) (UniProt P19327); test: Displacement of [3H]8-OH-DPAT from rat hippocampus 5-HT1A receptor assessed as total radioligand binding at 1 uM incubated for 20 mins by microbeta plate reader based method
T6 sequence (whole entry): T5 sequence (P19327 whole entry)

[22] = target: T6, 5-hydroxytryptamine receptor 1A (Rattus norvegicus); test: Displacement of [3H]8-OH-DPAT from rat hippocampus 5-HT1A receptor assessed as total radioligand binding at 1.66 x 10^-7 M incubated for 20 mins by microbeta plate reader based method
[23] = target: T4, 5-hydroxytryptamine receptor 6; test: Displacement of [3H]LSD from human recombinant 5-HT6 receptor expressed in HEK293 cells assessed as total radioligand binding at 1.66 x 10^-7 M incubated for 60 mins by microbeta plate reader based method; assay type: cell-based
[24] = target: T3, 5-hydroxytryptamine receptor 7; test: Agonist activity at human 5-HT7 receptor expressed in HEK293 cells assessed as stimulation of cAMP levels at 0.1 uM relative to 5HT; assay type: functional, cell-based
[25] = target: T3, 5-hydroxytryptamine receptor 7; test: Antagonist activity against human 5-HT7 receptor expressed in HEK293 cells assessed as inhibition of 5-HT-induced cAMP levels at 0.1 uM; assay type: functional, cell-based
[26] = target: T2, D(2) dopamine receptor; test: Agonist activity at human D2L receptor expressed in HEK293 cells assessed as stimulation of cAMP levels at 1 uM relative to dopamine; assay type: functional, cell-based
[27] = target: T4, 5-hydroxytryptamine receptor 6; test: Displacement of [3H]LSD from human recombinant 5-HT6 receptor expressed in HEK293 cells incubated for 60 mins by microbeta plate reader based method; assay type: cell-based
[28] = test system: Mus musculus; test: Toxicity in Swiss mouse assessed as spontaneous locomotor activity at 2.5 to 10 mg/kg, ip measured during 2 to 6 mins; assay type: organism-based; parameters: route intraperitoneal; conditions: in vivo
[29] = test system: Mus musculus; test: Antidepressant-like activity in Swiss mouse assessed as reduction in immobility time at 2.5 to 10 mg/kg, ip administered 60 mins before test; assay type: functional, organism-based
[30] = test system: Mus musculus; test: Antidepressant-like activity in Swiss mouse assessed as reduction in immobility time at 5 mg/kg, ip administered 60 mins before test; assay type: functional; parameters: scale not given: the % may be the effect or the level left; conditions: route intraperitoneal
[31] = test system: Mus musculus; test: Anxiolytic-like activity in Swiss mouse assessed as increase in number of punished crossings measured during 60 seconds period at 25 mg/kg, ip by four-plate test; assay type: functional; conditions: route intraperitoneal
[32] = test system: Mus musculus; test: Toxicity in Swiss mouse assessed as spontaneous locomotor activity at 2.5 to 20 mg/kg, ip measured during 2 to 6 mins; assay type: organism-based; parameters: route intraperitoneal; conditions: in vivo
[33] = test system: Mus musculus; test: Antidepressant-like activity in Swiss mouse assessed as reduction in immobility time at 10 mg/kg, ip administered 60 mins before test; assay type: functional; parameters: scale not given: the % may be the effect or the level left; conditions: route intraperitoneal
[34] = test system: Mus musculus; test: Anxiolytic-like activity in Swiss mouse assessed as increase in number of punished crossings measured during 60 seconds period at 5 to 20 mg/kg, ip by four-plate test; assay type: functional, organism-based
[35] = test system: Mus musculus; test: Antidepressant-like activity in Swiss mouse assessed as reduction in immobility time at 2.5 to 20 mg/kg, ip administered 60 mins before test; assay type: functional, organism-based
[36] = test system: Mus musculus; test: Anxiolytic-like activity in Swiss mouse assessed as increase in number of punished crossings measured during 60 seconds period at 1.25 to 5 mg/kg, ip by four-plate test; assay type: functional, organism-based
[37] = test system: Mus musculus; test: Antidepressant-like activity in Swiss mouse assessed as reduction in immobility time at 1.25 mg/kg, ip administered 60 mins before test; assay type: functional; parameters: scale not given: the % may be the effect or the level left; conditions: route intraperitoneal
[38] = test system: Mus musculus; test: Antidepressant-like activity in Swiss mouse assessed as reduction in immobility time at 0.625 to 5 mg/kg, ip administered 60 mins before test; assay type: functional, organism-based
[39] = test system: Mus musculus; test: Antidepressant-like activity in ip dosed Swiss mouse assessed as reduction in immobility time administered 60 mins before test; assay type: functional; conditions: read-out: MED
[40] = test system: Mus musculus; test: Toxicity in Swiss mouse assessed as spontaneous locomotor activity at 0.625 to 5 mg/kg, ip measured during 2 to 6 mins; assay type: organism-based; parameters: route intraperitoneal; conditions: in vivo
[41] = test system: Mus musculus; test: Potency index, ratio of MED for imipramine to MED for compound for antidepressant-like activity in ip dosed Swiss mouse; assay type: functional

| Compound | Activity [1] [%] | inhibition [2] [%] | Activity [3] [%] | Ki [4] [nM] | Activity [5] [%] | inhibition [7] [%] | Ki [8] [nM] | inhibition [10] [%] | Ki [11] [nM] | Activity [12] [%] | Activity [13] [%] | Ratio Ki [14] | inhibition [15] [%] | Activity [16] | Activity [17] [%] | Activity [18] [%] | inhibition [20] [%] | Activity [24] [%] | inhibition [25] [%] | Activity [26] [%] | also measured |
| --- | --- | --- | --- | --- | --- | --- | --- | --- | --- | --- | --- | --- | --- | --- | --- | --- | --- | --- | --- | --- | --- |
| Cn1c(=O)c2c(nc3n(CCCCCN4CCN(c5ccccc5O)CC4)c(-c4ccccc4)cn23)n(C)c1=O | 22.9 | 12.2 | 12.3 | 43 | 60 | 71.2 | 24 | 58.9 | 9 | 39 | 32.5 | 0.2 | 68.3 | Non-toxic | 81 | 5.3 | 91.8 | 5.1 | 11 | 7.7 | Activity [6]: inactive; Activity [9]: 90%; Activity [19]: Active; Activity [21]: 9%; Activity [22]: 47%; Activity [23]: 87% |
| Cc1cn2c3c(=O)n(C)c(=O)n(C)c3nc2n1CCCCCN1CCN(c2ccc(Cl)c(Cl)c2)CC1 | 2.3 | 20.9 | 0.8 | 111 |  | 55.9 | 59 |  | 22 |  | 18.7 | 0.19 | 92.9 | Non-toxic |  |  | 87.6 |  |  | 10 | Ki [27]: 405 nM; Activity [28]: Non-toxic; Activity [29]: Active; Activity [30]: 25%; Activity [19]: Active; Activity [31]: 124% |
| Cn1c(=O)c2c(nc3n(CCCCN4CCN(c5ccccc5O)CC4)c(-c4ccccc4)cn23)n(C)c1=O | 23.4 | 45 | 19.2 | 30 | 37 | 77.8 | 4 | 64.3 | 6 | 39 | 37.4 | 0.2 | 82.4 |  | 81 | -2.2 | 104 | 4.5 | 7.7 | 28 | Activity [32]: Non-toxic; Activity [33]: 17%; Activity [34]: inactive; Activity [21]: 7%; Activity [22]: 42%; Activity [23]: 69%; Activity [35]: Active |
| Cn1c(=O)c2c(nc3n(CCCCCN4CCN(c5ccc(Cl)cc5)CC4)c(-c4ccccc4)cn23)n(C)c1=O | -7 | 16.5 | 3.1 | 122 |  | 75.6 | 9 | 22.1 | 93 |  | 2.3 | 0.7 | 71.8 |  |  | 9.1 | 34.7 | 1.9 | -8.4 | 7.7 | Activity [36]: inactive; Ki [27]: 45 nM; Activity [37]: 40%; Activity [38]: Active; minimal effective dose [39]: 1.25 mg/kg; Activity [40]: Non-toxic; Ratio [41]: 4 |
